Laboratory results published in patent US11459315B2, “Modulators of methyl modifying enzymes, compositions and uses thereof” (Constellation Pharmaceuticals, Inc., priority 2017, dated 2022).
Where two headings read alike, the source gives them in different places.

How the values were obtained:
[1] = molecular target: PRC2 containing wt EZH2 (Homo sapiens (Human), UniProt Q15910); test: EZH2 biochemical assay (IC50), 3H-SAM incorporation into biotinylated H3 peptide
How it was run: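 The PRC2 pentamer with wt EZH2 (30 pM) was pre-incubated for 3-5 h with 450 nM SAM plus 450 nM ³H-SAM, 2 µM H3K27me3 activating peptide and compound (0.8% DMSO) in Tris at pH 8.5. Biotinylated H3K27me1 peptide was added and the reaction ran 18-22 h at RT. Incorporated ³H was captured on streptavidin plates, and IC50 was taken from a four-parameter fit.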

[2] = system: H3K27me3 mark in HeLa cells (EZH2); test: H3K27me3 Alpha Hela Assay (AlphaLISA); assay type: cell-based; conditions: HeLa cells, 72 hrs, read-out: EZH2 Cell H3K27me3 Alpha HeLa (EC50 K27me3)
How it was run: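 HeLa cells (1,000/well) treated with ten 3-fold compound doses for 72 h at 37 °C; lysates extracted and H3K27me3 detected by AlphaLISA with anti-K27me3 acceptor beads, biotinylated anti-H3 (3 nM) and streptavidin donor beads. EC50 from DMSO-normalized dose-response curves; duplicate plate assessed viability.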

[3] = EZH2 (IC50), 30 pM PRC2 containing wt EZH2; 3-5 h pre-incubation
[4] = 30 pM PRC2 containing wt EZH2; 3-5 h pre-incubation; read-out: EZH2 (IC50)

PRC2 containing wt EZH2, sequence (Q15910 whole entry): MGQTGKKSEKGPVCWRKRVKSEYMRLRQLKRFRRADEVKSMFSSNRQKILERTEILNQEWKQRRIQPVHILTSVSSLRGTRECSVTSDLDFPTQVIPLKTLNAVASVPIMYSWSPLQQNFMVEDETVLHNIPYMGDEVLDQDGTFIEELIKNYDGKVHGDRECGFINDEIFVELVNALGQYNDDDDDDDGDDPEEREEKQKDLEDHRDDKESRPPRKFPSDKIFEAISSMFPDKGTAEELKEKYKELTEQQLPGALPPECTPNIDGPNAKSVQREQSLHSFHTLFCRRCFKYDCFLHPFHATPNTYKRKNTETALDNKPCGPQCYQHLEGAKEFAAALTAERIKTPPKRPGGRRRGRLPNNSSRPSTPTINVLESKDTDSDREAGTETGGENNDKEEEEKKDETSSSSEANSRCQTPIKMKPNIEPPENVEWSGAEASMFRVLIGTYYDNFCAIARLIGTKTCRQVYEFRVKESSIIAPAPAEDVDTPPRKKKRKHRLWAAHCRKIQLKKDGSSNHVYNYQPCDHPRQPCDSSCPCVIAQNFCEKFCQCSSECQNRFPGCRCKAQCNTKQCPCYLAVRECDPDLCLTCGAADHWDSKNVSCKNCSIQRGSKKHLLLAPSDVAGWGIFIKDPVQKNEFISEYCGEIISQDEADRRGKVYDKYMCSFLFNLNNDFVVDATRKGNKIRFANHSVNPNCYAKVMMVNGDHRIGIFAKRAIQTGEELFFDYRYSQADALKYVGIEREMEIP
PRC2 containing wt EZH2, sequence (O75530 whole entry partner): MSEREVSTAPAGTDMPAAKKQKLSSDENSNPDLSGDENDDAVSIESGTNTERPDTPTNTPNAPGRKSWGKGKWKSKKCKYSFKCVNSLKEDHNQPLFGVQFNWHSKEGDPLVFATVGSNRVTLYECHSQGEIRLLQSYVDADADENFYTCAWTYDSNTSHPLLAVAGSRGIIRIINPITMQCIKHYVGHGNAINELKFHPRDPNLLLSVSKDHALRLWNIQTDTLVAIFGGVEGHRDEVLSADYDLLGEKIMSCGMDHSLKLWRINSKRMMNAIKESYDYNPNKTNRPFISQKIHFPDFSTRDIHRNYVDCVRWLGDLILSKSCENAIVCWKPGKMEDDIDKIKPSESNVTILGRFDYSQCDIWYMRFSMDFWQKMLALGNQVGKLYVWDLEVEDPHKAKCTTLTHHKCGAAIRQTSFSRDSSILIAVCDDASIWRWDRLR
PRC2 containing wt EZH2, sequence (Q15022 whole entry partner): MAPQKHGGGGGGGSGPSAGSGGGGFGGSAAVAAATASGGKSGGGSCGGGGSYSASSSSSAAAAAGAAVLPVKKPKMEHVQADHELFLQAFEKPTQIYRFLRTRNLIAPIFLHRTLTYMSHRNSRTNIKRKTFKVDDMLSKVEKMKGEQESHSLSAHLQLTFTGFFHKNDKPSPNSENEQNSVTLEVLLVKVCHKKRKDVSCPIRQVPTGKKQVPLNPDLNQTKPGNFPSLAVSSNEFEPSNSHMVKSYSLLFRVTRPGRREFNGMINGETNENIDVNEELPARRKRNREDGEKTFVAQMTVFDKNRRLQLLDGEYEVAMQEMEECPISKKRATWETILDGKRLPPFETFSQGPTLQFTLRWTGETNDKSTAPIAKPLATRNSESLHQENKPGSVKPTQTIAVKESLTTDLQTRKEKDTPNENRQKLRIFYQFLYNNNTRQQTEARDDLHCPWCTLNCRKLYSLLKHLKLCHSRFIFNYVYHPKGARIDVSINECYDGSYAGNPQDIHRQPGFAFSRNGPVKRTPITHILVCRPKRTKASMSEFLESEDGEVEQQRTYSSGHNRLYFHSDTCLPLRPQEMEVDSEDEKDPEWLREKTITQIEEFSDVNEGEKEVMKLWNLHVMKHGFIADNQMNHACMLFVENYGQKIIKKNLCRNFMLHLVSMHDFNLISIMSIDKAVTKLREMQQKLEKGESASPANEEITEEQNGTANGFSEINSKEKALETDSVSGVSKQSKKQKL
PRC2 containing wt EZH2, sequence (Q09028 whole entry partner): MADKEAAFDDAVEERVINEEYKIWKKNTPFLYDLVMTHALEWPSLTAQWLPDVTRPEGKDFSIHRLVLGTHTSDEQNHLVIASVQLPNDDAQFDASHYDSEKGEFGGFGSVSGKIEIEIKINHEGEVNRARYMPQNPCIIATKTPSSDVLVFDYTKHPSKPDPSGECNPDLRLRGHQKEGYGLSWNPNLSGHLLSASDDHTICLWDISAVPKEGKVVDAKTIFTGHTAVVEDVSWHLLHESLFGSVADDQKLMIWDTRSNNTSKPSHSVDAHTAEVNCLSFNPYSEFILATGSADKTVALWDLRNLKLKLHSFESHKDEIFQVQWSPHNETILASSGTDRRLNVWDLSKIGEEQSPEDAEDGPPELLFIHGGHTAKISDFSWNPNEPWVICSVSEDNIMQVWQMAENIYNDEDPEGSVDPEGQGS
PRC2 containing wt EZH2, sequence (Q6ZN18 whole entry partner): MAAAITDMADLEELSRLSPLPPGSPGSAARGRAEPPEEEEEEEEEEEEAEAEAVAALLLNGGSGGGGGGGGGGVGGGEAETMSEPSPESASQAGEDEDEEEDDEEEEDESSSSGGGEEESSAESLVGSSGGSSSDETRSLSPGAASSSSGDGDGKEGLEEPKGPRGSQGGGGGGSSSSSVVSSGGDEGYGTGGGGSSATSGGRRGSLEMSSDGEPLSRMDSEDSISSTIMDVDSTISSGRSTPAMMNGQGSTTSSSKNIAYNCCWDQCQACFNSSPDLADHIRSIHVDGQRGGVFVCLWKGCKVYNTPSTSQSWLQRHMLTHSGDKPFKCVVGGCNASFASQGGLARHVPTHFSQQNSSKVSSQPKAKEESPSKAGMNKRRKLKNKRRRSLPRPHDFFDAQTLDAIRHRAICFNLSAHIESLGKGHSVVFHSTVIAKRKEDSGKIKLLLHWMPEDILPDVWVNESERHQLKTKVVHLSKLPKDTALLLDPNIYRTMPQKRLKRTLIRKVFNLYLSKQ

Structure (SMILES): CCSc1cc(C)[nH]c(=O)c1CNC(=O)c1c(C)n([C@H](C)C2CCN(CC(F)(F)F)CC2)c2ccccc12 [Example 86, (R)-N-((4-(ethylthio)-6-methyl-2-oxo-1,2-dihydropyridin-3-yl)methyl)-2-methyl-1-(1-(1-(2,2,2-trifluoroethyl)piperidin-4-yl)ethyl)-1H-indole-3-carboxamide]
- IC50 [1, 3]: 0.5 to 5 nM
- EC50 ([2]; Homo sapiens, HeLa, 72 h): 10 to 100 nM

Structure (SMILES): CSc1cc(C)[nH]c(=O)c1CNC(=O)c1c(C)n([C@H](C)C2CCC(O)CC2)c2ccccc12 (single isomer, unassigned) [19 (isomer 1)]
- IC50 [1, 3]: < 0.5 nM
- EC50 ([2]; Homo sapiens, HeLa, 72 h): < 10 nM

Structure (SMILES): CSc1cc(C)[nH]c(=O)c1CNC(=O)c1c(C)n([C@H](C)C2CCN(C(=O)CO)CC2)c2ccccc12 [Example 135, (R)-1-(1-(1-(2-hydroxyacetyl)piperidin-4-yl)ethyl)-2-methyl-N-((6-methyl-4-(methylthio)-2-oxo-1,2-dihydropyridin-3-yl)methyl)-1H-indole-3-carboxamide]
- IC50 [1, 4]: < 0.5 nM
- EC50 ([2]; Homo sapiens, HeLa, 72 h): > 100 nM

Structure (SMILES): COC1CC(N2CCC([C@@H](C)n3c(C)c(C(=O)NCc4c(SC)cc(C)[nH]c4=O)c4ccccc43)CC2)C1 (stereo partly drawn) [Example 140, (R)-1-(1-(1-(3-methoxycyclobutyl)piperidin-4-yl)ethyl)-2-methyl-N-((6-methyl-4-(methylthio)-2-oxo-1,2-dihydropyridin-3-yl)methyl)-1H-indole-3-carboxamide]
- IC50 [1, 3]: < 0.5 nM
- EC50 ([2]; Homo sapiens, HeLa, 72 h): 10 to 100 nM

Structure (SMILES): CSc1cc(C)[nH]c(=O)c1CNC(=O)c1c(C)n([C@H](C)C2CCC(N(C)C3(C)COC3)CC2)c2ccccc12 (single isomer, unassigned) [3 (isomer 2)]
- IC50 [1, 4]: < 0.5 nM
- EC50 [2]: 10 to 100 nM

Structure (SMILES): CSc1cc(C)[nH]c(=O)c1CNC(=O)c1c(C)n([C@H](C)C2CCC(N3CCOCC3)CC2)c2ccccc12 (single isomer, unassigned) [75 (isomer 1)]
- IC50 [1, 3]: < 0.5 nM
- EC50 ([2]; Homo sapiens, HeLa, 72 h): 10 to 100 nM

Structure (SMILES): CSc1cc(C)[nH]c(=O)c1CNC(=O)c1c(C)n([C@H](C)C2CCC(N3CC34COC4)CC2)c2ncccc12 (single isomer, unassigned) [139 (isomer 1)]
- IC50 [1, 3]: < 0.5 nM
- EC50 ([2]; Homo sapiens, HeLa, 72 h): 10 to 100 nM

Structure (SMILES): COC1CCC([C@@H](C)n2c(C)c(C(=O)NCc3c(SC)cc(C)[nH]c3=O)c3cncnc32)CC1 (single isomer, unassigned) [41 (isomer 1)]
- IC50 [1, 3]: < 0.5 nM
- EC50 ([2]; Homo sapiens, HeLa, 72 h): < 10 nM

Structure (SMILES): CSc1cc(C)[nH]c(=O)c1CNC(=O)c1c(C)n([C@H](C)C2CCC(OC3CN(C)C3)CC2)c2ncccc12 (single isomer, unassigned) [145 (isomer 2)]
- IC50 [1, 3]: < 0.5 nM
- EC50 [2]: > 100 nM

Structure (SMILES): CSc1cc(C)[nH]c(=O)c1CNC(=O)c1c(C)n([C@H](C)C2OCC(NC(C)(C)C)CO2)c2ccccc12 (single isomer, unassigned) [5 (isomer 2)]
- IC50 [1, 4]: < 0.5 nM
- EC50 [2]: < 10 nM

Structure (SMILES): CSc1cc(C)[nH]c(=O)c1CNC(=O)c1c(C)n([C@H](C)C2CCC(N3CC(OC(F)F)C3)CC2)c2ncncc12 (stereo partly drawn) [Example 108, 7-((R)-1-(4-(3-(difluoromethoxy)azetidin-1-yl)cyclohexyl)ethyl)-6-methyl-N-((6-methyl-4-(methylthio)-2-oxo-1,2-dihydropyridin-3-yl)methyl)-7H-pyrrolo[2,3-d]pyrimidine-5-carboxamide]
- IC50 [1, 4]: < 0.5 nM
- EC50 ([2]; Homo sapiens, HeLa, 72 h): < 10 nM

Structure (SMILES): CSc1cc(C)[nH]c(=O)c1CNC(=O)c1c(C)n([C@@H](C)[C@H]2OC[C@@H](N3CCC34COC4)CO2)c2ccccc12 (single isomer, unassigned; isomer 1) [151 (isomer 1)]
- IC50 [1, 4]: 0.5 to 5 nM
- EC50 [2]: > 100 nM

Structure (SMILES): CC[C@@H](C1CCC(N2CC(OC(F)F)C2)CC1)n1c(C)c(C(=O)NCc2c(SC)cc(C)[nH]c2=O)c2cccnc21 (stereo partly drawn) [Example 117, 1-((S)-1-(4-(3-(difluoromethoxy)azetidin-1-yl)cyclohexyl)propyl)-2-methyl-N-((6-methyl-4-(methylthio)-2-oxo-1,2-dihydropyridin-3-yl)methyl)-1H-pyrrolo[2,3-b]pyridine-3-carboxamide]
- IC50 [1, 4]: 0.5 to 5 nM
- EC50 ([2]; Homo sapiens, HeLa, 72 h): 10 to 100 nM

Structure (SMILES): CSc1cc(C)[nH]c(=O)c1CNC(=O)c1c(C)n([C@H](C)C2CCC(N3CC(OC4CC4)C3)CC2)c2ccccc12 (stereo partly drawn) [Example 100, 1-((R)-1-(4-(3-cyclopropoxyazetidin-1-yl)cyclohexyl)ethyl)-2-methyl-N-((6-methyl-4-(methylthio)-2-oxo-1,2-dihydropyridin-3-yl)methyl)-1H-indole-3-carboxamide]
- IC50 [1, 4]: < 0.5 nM
- EC50 ([2]; Homo sapiens, HeLa, 72 h): < 10 nM

Structure (SMILES): CSc1cc(C)[nH]c(=O)c1CNC(=O)c1c(C)n([C@H](C)C2CCC(N3CC(S(C)(=O)=O)C3)CC2)c2ccccc12 (single isomer, unassigned) [162 (isomer 2)]
- IC50 [1, 4]: 0.5 to 5 nM
- EC50 [2]: > 100 nM

Structure (SMILES): CSc1cc(C)[nH]c(=O)c1CNC(=O)c1c(C)n([C@H](C)c2ccc(N(C)C)cc2)c2ccccc12 [Example 46, (R)-1-(1-(4-(dimethylamino)phenyl)ethyl)-2-methyl-N-((6-methyl-4-(methylthio)-2-oxo-1,2-dihydropyridin-3-yl)methyl)-1H-indole-3-carboxamide]
- IC50 [1, 3]: < 0.5 nM
- EC50 ([2]; Homo sapiens, HeLa, 72 h): 10 to 100 nM

Structure (SMILES): COC1CN(C2CCC([C@@H](C)n3c(C)c(C(=O)NCc4c(SCF)cc(C)[nH]c4=O)c4ccccc43)CC2)C1 (stereo partly drawn) [Example 93, N-((4-((fluoromethyl)thio)-6-methyl-2-oxo-1,2-dihydropyridin-3-yl)methyl)-1-((R)-1-(4-(3-methoxyazetidin-1-yl)cyclohexyl)ethyl)-2-methyl-1H-indole-3-carboxamide]
- IC50 [1, 4]: < 0.5 nM
- EC50 ([2]; Homo sapiens, HeLa, 72 h): 10 to 100 nM

Structure (SMILES): CSc1cc(C)[nH]c(=O)c1CNC(=O)c1c(C)n([C@H](C)C2CCC(O)CC2)c2ncc(Cl)cc12 (single isomer, unassigned) [53 (isomer 2)]
- IC50 ([1]; read-out: EZH2 (IC50); 30 pM PRC2 containing wt EZH2; 3-5 h pre-incubation): < 0.5 nM
- EC50 [2]: < 10 nM

Structure (SMILES): CSc1cc(C)[nH]c(=O)c1CNC(=O)c1c(C)n([C@H](C)C2CCC(NC(C)(C)C)CC2)c2ccccc12 (stereo partly drawn) [Example 61, (R)-1-(1-(4-(tert-butylamino)cyclohexyl)ethyl)-2-methyl-N-((6-methyl-4-(methylthio)-2-oxo-1,2-dihydropyridin-3-yl)methyl)-1H-indole-3-carboxamide]
- IC50 [1, 4]: < 0.5 nM
- EC50 ([2]; Homo sapiens, HeLa, 72 h): 10 to 100 nM

Structure (SMILES): CSc1cc(C)[nH]c(=O)c1CNC(=O)c1c(C)n([C@H](C)C2CCC(O)CC2)c2ncccc12 (single isomer, unassigned) [36 (isomer 1)]
- IC50 [1, 3]: < 0.5 nM
- EC50 ([2]; Homo sapiens, HeLa, 72 h): 10 to 100 nM

Structure (SMILES): CSc1cc(C)[nH]c(=O)c1CNC(=O)c1c(C)n([C@H](C)C2CCC(N3CC(OC(F)F)C3)CC2)c2c(F)cccc12 (single isomer, unassigned) [121 (isomer 1)]
- IC50 [1, 4]: < 0.5 nM
- EC50 [2]: < 10 nM

Structure (SMILES): CSc1cc(C)[nH]c(=O)c1CNC(=O)c1c(C)n([C@H](C)C2CCN(CC(F)(F)F)CC2)c2cc(Br)ccc12 [Example 127, (R)-6-bromo-2-methyl-N-((6-methyl-4-(methylthio)-2-oxo-1,2-dihydropyridin-3-yl)methyl)-1-(1-(1-(2,2,2-trifluoroethyl)piperidin-4-yl)ethyl)-1H-indole-3-carboxamide]
- IC50 [1, 3]: < 0.5 nM
- EC50 ([2]; Homo sapiens, HeLa, 72 h): 10 to 100 nM

Structure (SMILES): COC1CN(C2CCC([C@@H](C)n3c(C)c(C(=O)NCc4c(SC)cc(C)[nH]c4=O)c4cccnc43)CC2)C1 (single isomer, unassigned) [76 (isomer 2)]
- IC50 [1, 3]: 0.5 to 5 nM
- EC50 [2]: > 100 nM

Structure (SMILES): CSc1cc(C)[nH]c(=O)c1CNC(=O)c1c(C)n([C@H](C)C2CCN(C3COC3)CC2)c2ccccc12 [Example 133, (R)-2-methyl-N-((6-methyl-4-(methylthio)-2-oxo-1,2-dihydropyridin-3-yl)methyl)-1-(1-(1-(oxetan-3-yl)piperidin-4-yl)ethyl)-1H-indole-3-carboxamide]
- IC50 [1, 3]: < 0.5 nM
- EC50 ([2]; Homo sapiens, HeLa, 72 h): < 10 nM

Structure (SMILES): CSc1cc(C)[nH]c(=O)c1CNC(=O)c1c(C)n([C@H](C)[C@H]2CCN(C3CC3)CC2(F)F)c2ncccc12 (single isomer, unassigned) [70 (isomer 1)]
- IC50 [1, 3]: < 0.5 nM
- EC50 ([2]; Homo sapiens, HeLa, 72 h): < 10 nM

Structure (SMILES): CSc1cc(C)[nH]c(=O)c1CNC(=O)c1c(C)n([C@H](C)C2OCC(N3CC(F)(F)C3)CO2)c2ccccc12 (single isomer, unassigned) [85 (isomer 2)]
- IC50 [1, 3]: 0.5 to 5 nM
- EC50 [2]: > 100 nM

Structure (SMILES): CSc1cc(C)[nH]c(=O)c1CNC(=O)c1c(C)n([C@H](C)C2CCC(N3CC[C@@H](F)C3)CC2)c2ccccc12 (single isomer, unassigned) [79 (isomer 1)]
- IC50 [1, 3]: < 0.5 nM
- EC50 ([2]; Homo sapiens, HeLa, 72 h): < 10 nM

Structure (SMILES): CSc1cc(C)[nH]c(=O)c1CNC(=O)c1c(C)n([C@H](C)C2CCC(N3CC(F)(F)C3)CC2)c2ccccc12 (single isomer, unassigned) [23 (isomer 1)]
- IC50 [1, 3]: 0.5 to 5 nM
- EC50 ([2]; Homo sapiens, HeLa, 72 h): 10 to 100 nM

Structure (SMILES): CSc1cc(C)[nH]c(=O)c1CNC(=O)c1c(C)n([C@H](C)C2CCC(OC(F)F)CC2)c2ccccc12 (single isomer, unassigned) [60 (isomer 1)]
- IC50 [1, 3]: < 0.5 nM
- EC50 ([2]; Homo sapiens, HeLa, 72 h): < 10 nM

Structure (SMILES): CSc1cc(C)[nH]c(=O)c1CNC(=O)c1c(C)n([C@H](C)[C@H]2CCN(C)[C@H](C(F)(F)F)C2)c2ccccc12 [Example 71, 2-methyl-1-((R)-1-((2S,4S)-1-methyl-2-(trifluoromethyl)piperidin-4-yl)ethyl)-N-((6-methyl-4-(methylthio)-2-oxo-1,2-dihydropyridin-3-yl)methyl)-1H-indole-3-carboxamide]
- IC50 [1, 3]: < 0.5 nM
- EC50 ([2]; Homo sapiens, HeLa, 72 h): < 10 nM
